Tests used:
TSP-1 binding to FGF-2 = experiment: Co-immunoprecipitation TSP-1 with FGF-2; assay type: cell-based, human; details: HUVECs, 100 μM; conditioned media
Procedure: Protein lysates prepared in ice-cold lysis buffer or conditioned media were subjected to immunoprecipitation assay using the Pierce Co-IP kit (Thermo Fisher Scientific) according to the manufacturer's protocol. 10 μg of antibody (anti CD47, anti-CD36, anti-FGF2, anti-VEGF, anti-β1 integrin and anti-LRP1 heavy chain) or non-specific IgGs were incubated with the delivered resin and covalently coupled. The antibody-coupled resin was incubated with whole HUVEC protein lysate overnight at 4°C under gentle agitation (no cross-linker was used to stabilize protein complexes before HUVEC lysis). Then the resin was washed and the protein complexes bound to the antibody were eluted. Immunoprecipitated protein complexes were solubilized under denaturing and reducing conditions, heated to 100°C for 5 min and analyzed by immunoblotting as described above. […]
receptors. HUVECs were treated with TAX2 (100 μM) or scrambled peptide (Ctrl, 100 μM). FGF-2 and VEGF were immunoprecipitated from conditioned media using anti-FGF-2 (clone C-18) and anti-VEGF (clone C-1), respectively. β1 integrin and LRP-1 were immunoprecipitated from total protein lysates using anti-β1 integrin (clone BV7) and anti-LRP-1 heavy chain (clone 8G1), respectively. […] Histogram represents the quantification of relative ligand-bound TSP-1 under TAX2 treatment as compared to control. […]

HUVEC = HUVEC viability; assay type: cell-based, human
[1] = test system: B16F1 melanoma tumor in C57BL/6 mice; experiment: Subcutaneous B16F1 melanoma allograft: tumor volume and necrosis; assay type: in vivo, mouse; details: 10 mg/kg i.p. days 3, 5, 7
Procedure: (§1) For the subcutaneous melanoma tumor model, suspensions of B16F1 cells (2.5 × 10^5 cells in 100 μL RPMI-1640 medium) were subcutaneously injected into the left flank of different randomized series of syngeneic C57BL/6 mice (n = 8–10 per group), as previously described. Intraperitoneal administrations of peptide (10 mg/kg mouse weight) or controls (physiological serum 0.9% (w/v) NaCl or a scrambled peptide) were performed at days 3, 5 and 7. In human pancreatic carcinoma xenograft experiments, 3 × 10^6 MIA PaCa-2 cells/mouse were implanted subcutaneously into the left flank of BALB/C athymic nude mice, then TAX2 intraperitoneal treatments (10 mg/kg mouse weight) were performed 3 times a week during 4 weeks starting at day 10 after tumor cells inoculation. Tumor volume was determined according to v = 0.5 A × B^2, where A denotes the largest dimension of the tumor and B represents the smallest dimension. At days indicated, mice were sacrificed and tumors were surgically extracted and fixed in 4% paraformaldehyde for further morphologic studies and for magnetic resonance imaging, or frozen for immunohistochemistry. Mice were also weighed every 2–3 days and daily checked for any modification in their behavior. Loss of 15% body weight was an indication for euthanasia as well as severe tumor necrosis, as it was sometimes associated with skin ulceration that would result in loss of body fluid and/or infection.
(§2) Histological analysis of formaldehyde-fixed and paraffin-embedded tumors were performed on hemalun, phloxin and saffron (HPS) stained 3 μm thick sections prepared using routine histological methods. To assess tumor-associated microvessel density (MVD), CD31 immunostaining was performed on 5 μm thick cryosections using biotin-labeled secondary antibody and streptavidin-HRP AEC detection system (Microm Microtech, Francheville, France), followed by hematein counter-coloration. Negative controls were done omitting the primary antibody. The necrotic part relative to total tumor surface for each tumor slice as well as MVD were quantified using ImageJ software.
Tumors were studied by magnetic resonance imaging (MRI) for visualization of tumor necrosis when the subcutaneous allografts reached a diameter of about 0.8 cm (day 12). […] Image treatment, segmentation, tri-dimensional reconstruction and quantification were performed using ImageJ and Amira 5.4.3 (Visualization Sciences Group, Burlington, MA, USA) software.
Animals were anesthetized by isoflurane (Forene, Abbott France, Rungis, France) inhalation (3% for induction and 1–1.5% for maintenance) and then after placed in a carbon fibers bed. […] Analysis of reconstructed images and quantification of the vascular network were performed using Amira 5.4.3 software.

[2] = test system: tumor vascularization of B16F1 melanoma in C57BL/6 mice; experiment: B16F1 melanoma tumor angiography (μCT) and CD31 immunostaining; assay type: in vivo, mouse; details: 10 mg/kg i.p. days 3, 5, 7
Procedure: as §1, §2
Animals were anesthetized by isoflurane (Forene, Abbott France, Rungis, France) inhalation (3% for induction and 1–1.5% for maintenance) and then after placed in a carbon fibers bed. CT images were acquired on a dedicated small animal μCT scanner (Skyscan 1076, Bruker, Kontich, Belgium) while continuously rotating the camera by 180° with the following parameters: 50 kV, 0.5 mm Al filter, 200 μA source current, 35 μm isotropic resolution, 180 ms exposure time, 4 projection images per 0.7° rotation step and a retrospective synchronization. The projections were reconstructed using a filtered backprojection algorithm using Skyscan software (NRecon, Skyscan). For tumor angiography analysis, an alkaline earth-based nanoparticulate contrast agent (Viscover ExiTron nano 12000, Miltenyi Biotec, Paris, France) was injected in the mouse tail vein. Mice were imaged during the next 30 min following injection, a period during which no reduction in contrast was observed. Analysis of reconstructed images and quantification of the vascular network were performed using Amira 5.4.3 software.

BALB/C nu/nu mice = experiment: Tolerability in xenograft-bearing mice; assay type: in vivo, mouse
Procedure: as §1, with “Loss of 15% body weight was an indication for euthanasia as well as severe tumor necrosis, as it was sometimes associated with skin ulceration that would result in loss of body fluid and/or infection.” left out

[3] = test system: lung metastasis of invasive B16F10 melanoma cells; experiment: Experimental lung metastasis; assay type: in vivo; details: data not shown
[4] = μCT angiography, representative of n = 5

Sequence: CEVSQLLKGDAC (disulfide) [TAX2, CD47-derived cyclic disulfide dodecapeptide …]
- TSP-1 binding to FGF-2 (TSP-1 binding to FGF-2): does not affect
- cytotoxic effect on HUVECs (HUVEC): cannot be attributed to any cytotoxic effect
- HUVEC viability (HUVEC; percent compared to control treatment, t test): not significant
- large central necrotic area inside tumor masses (MRI and μCT) [1]: large central necrotic area inside tumor masses
- median tumor volume, melanoma ([1]; early stages (day 12, caliper), n = 54): No significant modification
- increase of necrotic area vs control (HPS staining) ([1]; p < 0.05): about 3 fold
- tumor necrosis at day 20 ([1]; photographs): substantial tumor necrosis
- tumor vasculature appearance in 3D reconstruction, day 14 [2]: highly anarchic and discontinuous, only at the tumor surface, surrounding a central hemorrhagic area
- blood vessel size (CD31) ([2]; tumor cryosections, n = 6): diminution in vessel size
- diminution in intratumoral MVD (CD31) ([2]; tumor cryosections, n = 6): 60%
- blood vessels within tumors, day 7 [2, 4]: undetectable
- central vascular network within tumors, day 14 [2, 4]: still lacking and a wide hemorrhagic area corresponding to the previously described necrotic zone was observed
- intratumoral vascularization, day 10 [2, 4]: restricted to tumor periphery
- length and diameter of tumor blood vessels ([2]; μCT day 14): significantly decreased both the length and diameter of blood vessels
- reduction in blood vessel mean volume ([2]; μCT day 14): 2 fold
- clinical sign or weight loss (BALB/C nu/nu mice; 10 mg/kg i.p. 3 times a week for 4 weeks): mice did not exhibit any other clinical sign or weight loss
- thrombosis, hemorrhage or embolism in xenograft-bearing mice (BALB/C nu/nu mice; healthy organs, human pancreatic carcinoma model): no signs of thrombosis, hemorrhage or embolism were observed in healthy organs
- lung metastasis formation [3]: did not increase metastasis formation

From publication PMC4627230, “Identification of TAX2 peptide as a new unpredicted anti-cancer agent” (Oncotarget, 2015)
